{"source": "paper PMC5065719", "about": "(Biochemistry, 2013)", "molecular_target": "IscU (Azotobacter vinelandii, UniProt O31270)", "sequence (O31270 whole entry)": "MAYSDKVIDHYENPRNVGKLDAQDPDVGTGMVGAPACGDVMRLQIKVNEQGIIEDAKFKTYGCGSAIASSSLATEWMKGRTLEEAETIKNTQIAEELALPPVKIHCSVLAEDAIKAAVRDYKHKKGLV", "assay": "UV/Vis absorption and visible CD during in vitro Fe-S cluster assembly", "assay_type": "binding", "conditions": "anaerobic, IscS, Cys, DTT, cluster assembled in situ"}
{"smiles": "[S]1[Fe][S][Fe]1", "note": "[[2Fe-2S] cluster]", "values": [{"measurement": "UV/Vis absorption and visible CD during in vitro Fe-S cluster assembly", "result": "shows the formation of the [2Fe-2S] cluster as previously reported for IscU (A)"}]}
